This note sets out measurements from PubChem BioAssay AID463203 (Broad Institute, 2010).

One may read the AC50 as the concentration at which the activity in the assay is half-maximal.

SMILES strings stand for the structures. Activity calls are given as the source filed them.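 How the source made its calls: active means more than half of replicate measurements showing over 20% loss of kinase signal relative to plate controls; inconclusive means some but at most half of replicates over 20% loss; inactive means no replicate over 20% signal loss.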

The assay deals with Glycogen synthase kinase-3 alpha (Homo sapiens) (UniProt P49840). The assay can be described thus: concentration-response blocking of human GSK3A – biochemical, luminescence, cell-free homogeneous, retest, dose response (AID 463203). The following applies: GSK-3 alpha enzyme, ADP-Glo luminescence, 60 min. A general note: ADP-Glo first removes unused ATP, then detects ADP through luciferase.
Glycogen synthase kinase-3 alpha (Homo sapiens), sequence (P49840 whole entry, looked up): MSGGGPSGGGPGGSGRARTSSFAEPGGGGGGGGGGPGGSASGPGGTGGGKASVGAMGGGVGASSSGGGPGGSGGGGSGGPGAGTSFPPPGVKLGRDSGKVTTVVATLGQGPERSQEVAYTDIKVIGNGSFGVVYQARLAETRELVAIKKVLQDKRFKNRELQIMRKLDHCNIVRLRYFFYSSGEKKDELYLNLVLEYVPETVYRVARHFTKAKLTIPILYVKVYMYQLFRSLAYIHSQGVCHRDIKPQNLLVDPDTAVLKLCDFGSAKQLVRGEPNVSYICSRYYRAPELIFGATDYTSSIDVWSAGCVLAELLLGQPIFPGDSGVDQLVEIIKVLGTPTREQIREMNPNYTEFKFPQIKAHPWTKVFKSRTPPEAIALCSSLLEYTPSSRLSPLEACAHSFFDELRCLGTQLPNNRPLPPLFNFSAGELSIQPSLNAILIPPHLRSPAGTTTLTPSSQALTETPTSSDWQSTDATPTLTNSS

As for `O=c1[nH]nnc2sc3c(c12)CCCC3`, the AC50 was > 30 µM (inactive).

On to `Fc1ccc(Nc2ncnc3ccccc23)cc1`, for which the AC50 was > 30 µM (inactive).

With `Fc1cccc(/C=N/Nc2ccccn2)c1`, the AC50 was > 30 µM (inactive).

As for `C=CCc1cc(/C=N/n2cnnc2)cc(OCC)c1O`, the AC50 is > 30 µM (inactive).

In the case of `COc1cccc(CCNC(=O)c2cc(COc3c(F)cccc3F)on2)c1`, the AC50 is > 30 µM (inactive).

For the molecule `CCCc1cc(NCc2ccccn2)n2c(nc3ccccc32)c1C#N`, the AC50 was > 30 µM (inactive).

As to `O=C1CNC(=S)N1CCCn1ccnc1`, the AC50 is > 30 µM (inactive).

Take `COc1ccc(-n2c(C)c([N+](=O)[O-])c3ccc(O)c(CN4CCCCC4)c32)cc1`: the AC50 is 19.1 µM.

Consider `C=CCNc1nc(N)c([N+](=O)[O-])c(N2CCCCCC2)n1`, for which the AC50 is 29.1 µM.

In the case of `NCCNc1cc(N2CCCC2)ccc1[N+](=O)[O-]`, the AC50 was > 30 µM (inactive).

For the molecule `COc1ccc(/C=N/NC(=O)c2nnn(-c3nonc3N)c2CN(C)c2ccccc2)cc1`, the AC50 is > 30 µM (inactive).

As to `CC1CCCC(C)N1C(=O)COC(=O)Cc1c[nH]c2ccccc12` (stereo not given), the AC50 was > 30 µM (inactive).

Turning to `CCCOc1ccc(-c2c(C(=O)N/N=C(\C)c3ccncc3)nnn2-c2nonc2N)cc1`, the AC50 was > 30 µM (inactive).

In the case of `CC1(C)OC2OC(COC(=O)c3ccccc3)C3OC(C)(C)OC3C2O1` (stereo not given), the AC50 is > 30 µM (inactive).

With `Cc1cccc(-n2ncc(C#N)c2-n2cccc2)c1`, the AC50 was > 30 µM (inactive).

In the case of `COc1ccc2cc(C(N)=O)c(=Nc3ccccc3)oc2c1`, the AC50 was > 30 µM (inactive).

With `COc1ccc(CC(=S)N2CCOCC2)cc1OC`, the AC50 was > 30 µM (inactive).

`CC1(C)CC(NC(=O)COc2ccccc2Cl)CC(C)(C)N1`: the AC50 is > 30 µM (inactive).

Consider `O=C(CSc1nc2[nH]ncc2c(=O)n1-c1ccccc1)NCCc1ccccc1`, for which the concentration at half-maximal activity (AC50) was 8.62 µM.

`O=C(Nc1cccc(-c2cnc3ccccc3n2)c1)c1ccncc1`: the AC50 is > 30 µM (inactive).

As for `CCc1ccc(OCC(O)CNC(C)(C)C)cc1` (stereo not given), the AC50 is > 30 µM (inactive).

As to `S=C(Nc1ccc(Cl)cc1)Nc1cccc2cnccc12`, the AC50 is > 30 µM (inactive).

With `O=C(O)COc1c(Cl)cc(/C=C2/NC(=O)NC2=O)cc1Br`, the AC50 is 23 µM.

Regarding `O=c1[nH]cnc(O)c1N=Nc1ccccc1`, the AC50 was 9.87 µM.

As to `COc1cccc(C(=O)O/N=C(\N)c2ccccn2)c1OC`, the AC50 is > 30 µM (inactive).

On to `CCC(Sc1ccc2nnc(-c3ccc(OC)c(OC)c3)n2n1)C(=O)O` (stereo not given), for which the AC50 was 29.2 µM.

Turning to `COc1ccc(OC)c(/C=C2\Oc3cc(OCC(=O)N4CC(O)C[C@H]4C(=O)O)ccc3C2=O)c1` (stereo not given in full), the AC50 was > 30 µM (inactive).

As for `CCC(Sc1ccc2nnc(-c3cccnc3)n2n1)C(=O)O` (stereo not given), the AC50 is > 30 µM (inactive).

As to `COc1ccc(NC(=O)Nc2ccccc2F)c(C)c1`, the AC50 was > 30 µM (inactive).

Consider `Nc1ccc2c(c1)C(=O)c1ccccc1C2=O`, for which the AC50 is > 30 µM (inactive).

For the molecule `O=C(COc1ccccc1F)NC1CC1`, the AC50 is > 30 µM (inactive).

For the molecule `CCc1cc(C(=O)OC)c(NC(=O)CN2CCN(C(=O)c3ccco3)CC2)s1`, the AC50 is > 30 µM (inactive).

Regarding `CCOc1cccc(-c2c(C(=O)N/N=C/c3ccncc3)nnn2-c2nonc2N)c1`, the AC50 is 2.13 µM.

Take `CCC/C(=N/NC(=O)c1nnn(-c2nonc2N)c1CN1CCCCC1)c1ccccc1`: the AC50 is 18.7 µM.

`Cc1ccc2nc(-c3ccccc3N)[nH]c2c1`: the AC50 is > 30 µM (inactive).

In the case of `CCOC(=O)c1cnn(Cc2ccccc2Cl)c1N`, the AC50 is > 30 µM (inactive).

On to `COc1ccc(-c2ncncc2-c2ccccc2)c(O)c1`, for which the AC50 is 13.2 µM.

As to `CC(=O)c1cccc(-c2ccc3c(=O)[nH]c(Nc4ccccc4)cc3c2)c1`, the AC50 is > 30 µM (inactive).

For `O=c1[nH]c(=O)n(C2CCCCCC2)c(O)c1C=NC1CCN(Cc2ccccc2)CC1`, the AC50 was 9.67 µM.

Regarding `N#CCCn1cc(/C=N/O)c(-c2ccccc2)n1`, the AC50 is > 30 µM (inactive).

`COc1ccc(NC(=O)CSc2nnc(-c3cccc(O)c3)o2)cc1`: the AC50 is > 30 µM (inactive).

Consider `Cc1cc(C)cc(NC(=O)CSCc2nc3c(nnn3Cc3ccc(F)cc3)c(=O)[nH]2)c1`, for which the AC50 is > 30 µM (inactive).

In the case of `Cc1nc(SCC(=O)Nc2ccccc2C(F)(F)F)c(C#N)c(C)c1CC(=O)c1ccc(Br)cc1`, the AC50 is > 30 µM (inactive).

Take `CCOc1ccc2ccccc2c1/C=N/n1cncn1`: the AC50 is > 30 µM (inactive).

As to `Brc1ccccc1/C=N/Nc1ccc2ccccc2n1`, the AC50 is > 30 µM (inactive).

`O=C1/C(=C/c2ccc(O)c(O)c2)Oc2cc(O)ccc21`: the half-maximal activity concentration (AC50) was 10.5 µM.

Turning to `COc1ccc(-c2nnc(SCC(=O)Nc3ccccc3OC)o2)cc1`, the AC50 is > 30 µM (inactive).

For `CN1/C(=C\C=[N+](C)c2ccccc2)C(C)(C)c2ccccc21`, the AC50 is > 30 µM (inactive).

Turning to `Cc1cc(OC(=O)c2c(C)cc(O)cc2O)cc(O)c1C(=O)O`, the AC50 is 27.8 µM.

As for `CCN(CC)CCCN(Cc1cc2cc3c(cc2[nH]c1=O)OCO3)C(=O)Nc1ccccc1OC`, the AC50 is > 30 µM (inactive).

`COCCCNc1nc2ccccc2[nH]c1=O`: the AC50 is > 30 µM (inactive).

As to `CN(C)C(=O)c1ccc(NC(=O)c2cc(-n3cnnc3)ccc2Cl)cc1`, the AC50 is > 30 µM (inactive).

Consider `COc1c(C)cc(Br)cc1C(=O)Nc1cccc(NC(=O)c2ccco2)c1`, for which the AC50 is > 30 µM (inactive).

For `CCN1CCN(c2c(Cl)cccc2NC(=O)c2cc3ccccc3o2)CC1`, the AC50 was > 30 µM (inactive).

On to `Cc1ccc(N=Nc2c(O)ccc3n[nH]nc23)cc1`, for which the AC50 is 4.23 µM.

As for `COC(=O)c1sc(NC(=O)COc2ccc(OC)cc2)nc1C`, the half-maximal activity concentration (AC50) is 28.6 µM.

Turning to `CCc1cc2c3c(c(=O)oc2cc1O)CCCC3`, the AC50 was > 30 µM (inactive).

For the molecule `Cc1cc(O)c2c(-c3ccccc3)cc(=O)oc2c1`, the AC50 was > 30 µM (inactive).

`CCOc1ccc(-c2nnc(N)s2)cc1`: the AC50 was > 30 µM (inactive).

As for `c1ccc(Cn2nc(-c3ccccc3)nc2-c2ccccc2)cc1`, the AC50 was > 30 µM (inactive).

Take `O=C(O)CCNc1ccc(NCCC(=O)O)c2c1C(=O)c1ccccc1C2=O`: the concentration at half-maximal activity (AC50) is 22.7 µM.

Take `CC(C)NC(=O)Nc1n[nH]c(Nc2ccc(Cl)cc2)n1`: the AC50 was 4.87 µM.

In the case of `CCOC(=O)c1cc(C)sc1NC(=O)C1CCC1`, the AC50 is > 30 µM (inactive).

As to `Cn1ccnc1SCC(=O)Nc1ccc(Cl)cn1`, the half-maximal activity concentration (AC50) is 23.1 µM.

Take `O=C(O)c1ccc(Cl)c(NC(=O)C2CCCN2S(=O)(=O)c2cccc3nsnc23)c1` (stereo not given): the AC50 is 19.1 µM.

Take `CC(C)COC(=O)N1CCCC1C(=O)Nc1nccs1` (stereo not given): the AC50 was > 30 µM (inactive).

For the molecule `Fc1ccc(/C=N/Nc2cc(N3CCOCC3)ncn2)cc1`, the AC50 is > 30 µM (inactive).

On to `Cc1cccc(N2CCN(C(=O)c3cc4c(=O)[nH]c5ccccc5c4n3C)CC2)c1C`, for which the AC50 was > 30 µM (inactive).

On to `Cc1cccc(N(C)C(=O)C2CCCN2S(=O)(=O)c2cccc3nsnc23)c1` (stereo not given), for which the AC50 is 24.8 µM.

On to `Cc1nc2c(ccc3c2ccc2nc(C)sc23)s1`, for which the AC50 is > 30 µM (inactive).

For `Cc1ccccc1N=Nc1c(O)[nH]c2ccccc12`, the AC50 was > 30 µM (inactive).

For `COC(=O)c1ccc(CSc2nnc(SCc3ccc(C(=O)OC)o3)s2)o1`, the AC50 was > 30 µM (inactive).

On to `c1csc(CNc2ncnc3sccc23)c1`, for which the AC50 was > 30 µM (inactive).

For `CC(C)NC(=O)/C(=C\c1cccc([N+](=O)[O-])c1)NC(=O)c1ccccc1`, the AC50 is > 30 µM (inactive).

For `COc1ccccc1Nc1nc(NCCCCO)nc(N2CCCC2)n1`, the AC50 was > 30 µM (inactive).

Consider `CCOC(=O)c1cnn(C)c1NC(=O)c1ccc(Cl)cc1Cl`, for which the AC50 was > 30 µM (inactive).

Consider `O=C(c1ccc(Cl)cc1)c1cnc(Nc2ccccc2Cl)s1`, for which the AC50 was > 30 µM (inactive).

In the case of `CCOc1cccc(-c2c(C(=O)N/N=C/c3ccco3)nnn2-c2nonc2N)c1`, the half-maximal activity concentration (AC50) was 10.5 µM.

For `Cc1ccc2oc(=O)c3cnn(CC(=O)N4CCc5ccccc5C4)c3c2c1`, the AC50 was > 30 µM (inactive).

For the molecule `COc1cccc(N(CC(=O)Nc2cccc(C(C)=O)c2)S(C)(=O)=O)c1`, the AC50 is > 30 µM (inactive).

`O=C1c2cnc3nc(SCc4cccc(Cl)c4)nn3c2CC2c3ccccc3CCN12` (stereo not given): the AC50 is > 30 µM (inactive).

`CCCCC(=O)Nc1ccc2c(c1)C(=O)NC2=O`: the AC50 was 15.6 µM.

For `O=C(CSc1nnc(SCC(=O)c2ccco2)s1)c1ccco1`, the AC50 was > 30 µM (inactive).

Take `O=C(CN(Cc1ccco1)C(=O)CCC(=O)Nc1ccccn1)NCc1ccccc1`: the AC50 is > 30 µM (inactive).

For `C=CCN1C(=O)/C(=C\c2ccco2)C(C(=O)OC)=C1C`, the AC50 is > 30 µM (inactive).

As to `Cc1cccc(C)c1OC(=O)Cc1ccccc1`, the AC50 was > 30 µM (inactive).

Take `Cc1ccc(C(=O)O/N=C(\N)c2cccc([N+](=O)[O-])c2)cc1`: the AC50 was > 30 µM (inactive).

With `O=C(NCCO)c1ccccc1O`, the AC50 is > 30 µM (inactive).

For the molecule `COc1ccc(-c2cn3cccnc3n2)cc1NC(=O)C(C)C`, the AC50 was > 30 µM (inactive).

For `CCOC(=O)c1cccnc1NC(=O)c1ccncc1`, the AC50 was > 30 µM (inactive).

For the molecule `COCc1c(C(=O)N/N=C\c2cccnc2)nnn1-c1nonc1N`, the AC50 is > 30 µM (inactive).

Turning to `COc1ccc(Cl)cc1Nc1nc(N)c2ccccc2n1`, the AC50 was > 30 µM (inactive).

Regarding `O=C1/C(=C/c2ccc(Br)cc2)Oc2cc(O)ccc21`, the AC50 was > 30 µM (inactive).

`O=C(CSc1nc2ccccc2o1)Nc1nc2ccc(Br)cc2s1`: the AC50 is > 30 µM (inactive).

Consider `O=S(=O)(Nc1ccccc1O)c1cccc2cccnc12`, for which the AC50 is > 30 µM (inactive).
